In US20030065039A1, “Biologically active 1,3-bis-aromatic-prop-2-en-1-ones, 1,3-bis-aromatic-propan-1-ones, and 1,3-bis-aromatic-prop-2-yn-1-ones” (Statens Serum Institute, priority 1997, published 2003):
Like-named read-outs stand apart in the source and are kept apart here.

Tests used:
Assay type in all cases: cell-based
TNF-α = TNF-α production by human peripheral blood mononuclear cells, culture supernatant (ELISA); conditions: Homo sapiens, PBMC, read-out: percentage inhibition of TNF-α production; for inhibition at 1 µg/mL: drug 1 μg/ml; for inhibition at 5 µg/mL: drug 5 μg/ml; for inhibition at 10 µg/mL: drug 10 μg/ml; for inhibition at 20 µg/mL: drug 20 μg/ml; for inhibition at 1.25 µg/mL: drug 1.25 μg/ml; for inhibition at 6.25 µg/mL: drug 6.25 μg/ml; for inhibition at 12.5 µg/mL: drug 12.5 μg/ml
Method: Cells: Peripheral blood mononuclear cells obtained from healthy individuals. The cells were separated by a conventional method lymphoprep) and suspended in RMPI 1640 containing 5% human serum.
Stimulation of cytokine-release from human mononuclear cells: Human peripheral blood mononuclear cells from Danish donors were suspended in 1-10% (v/v) human serum in RPMI 1640 and adjusted to 2×10^6 cells per ml. 0.1 ml volumes were then dispensed into wells of 96-well microtiter plates. […] In some experiments cells were preincubated with drugs for 2 hrs before addition of stimulation antigens. The cultures were incubated overnight for TNF-α and IL-6 assays.
Supernatants were collected and assayed for TNF-α, IL-1α and IL-6 by ELISA procedures (Jakobsen et al., 1993, Fomsgaard et al., 1988, Hansen et al., 1991) with the following modifications. ELISA Maxisorp plates (Nunc, Roskilde, Denmark) were coated for 24 hrs at 4 C with 100 μl per well of 2.5 μg/ml rabbit polyclonal IgG to human recombinant TNF, IL-1α or IL-6 in 100 mM sodiumhydrogencarbonate. Non-attached sites were blocked for 1 h by 200 μl per well of 2% human serum slbumin in PBS (1 h at 37° C.), and the wells were washed 4 times in 2.5% NaCl, 0.1% Tween 20 (Merck, Darmstadt, Germany). This washing procedure was done after each of the following incubating steps:
1) 100 μl culture supernatants made to 50% (v/v) in incubation buffer (4% (v/v) normal rabbit serum, DAKO code X902), 1% polyethylene glycol (MW 6,000), 2.5% NaCl, 0.1% Tween 20 in phosphate buffered saline (PBS) were incubated 2 hrs at 37° C., dilutions of native as well as recombinant cytokine standards in the same incubation buffer were asssayed in parallel with the tested supernatants,
2) 100 μl per well of biotinilated rabbit antibodies to recombinant TNF-α, IL-1α or IL-6 (1.5 μg/ml in 0.5% human serum albumin, 0.1% Tween 20 in PBS) were added at 37° for 2 hrs,
3) […] per well of a 1:1000 dilution of streptavidin-peroxidase (Amersham, UK), at room temperature for 30 min.
Enzyme activities were quantitated after addition of 100 μl per well of 0.67 mg/ml 1,2-phenyldiamine hydrochloride (DAKO) dissolved in 100 mM citric acid-phosphate buffer, pH 5.0 containing 0.015% (v/v) H2O2. The reactions were stopped by adding 50 μl per well of 2.5 M H2SO4, and the optical densities are measured in an ELISA scanner at 490 nm against a test reference at 620 nm.
Assay: The compounds were prepared as stock solution at a concentration of 1 mg/ml in medium containing 10% DMSO. The dilutions were made in medium. The cells were stimulated with either SPAG (a malaria antigen TNF-inducer) or bacterial LPS. The supernatant of cell cultures were assayed for TNF-α using a commercial ELISA kit.

Leishmania promastigotes = Leishmania promastigotes Assay; conditions: Leishmania; promastigotes, 3H-thymidine uptake; read-out: Leishmania IC50 ± SD
Outline: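 L. major (WHO Iran vaccine strain) and L. donovani MHOM/KE/85/NLB 274 promastigotes (3×10^6/ml, day 3 and 6 cultures) exposed to compound 2 h at 26 °C, then 3H-thymidine 18 h; incorporation counted by scintillation. Microscopic counts and flagellar motility also assessed.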

human lymphocytes = experiment: Lymphocyte Proliferation Assay; conditions: Lymphocyte; PHA provoked proliferation of human lymphocytes; read-out: Lymphocytes IC50 ± SD
Outline: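 Ficoll-isolated human blood mononuclear cells (0.63×10^5/ml) in RPMI 1640 with 5% FCS were cultured in triplicate with test compound and PHA or PPD for 3 or 7 days. Proliferation measured by ^3H-thymidine incorporation over the final 24 h; triplicate median recorded.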

C=CCOc1ccc(C(=O)/C=C/c2cc(OC)cc(OC)c2)cc1 [SBC-35ma, 3,5-dimethoxy-4′-allyloxychalcone]
inhibition at 1 µg/mL (TNF-α; Table 1, LPS 1:1000): 0%
inhibition at 5 µg/mL (TNF-α; Table 1, LPS 1:1000): 1%
inhibition at 10 µg/mL (TNF-α; Table 1, LPS 1:1000): 56%
inhibition at 20 µg/mL (TNF-α; Table 1, LPS 1:1000, preincubated 2 hrs): 73%
inhibition at 1 µg/mL (TNF-α; Table 1, SPAG 1:12.5): 0%
inhibition at 5 µg/mL (TNF-α; Table 1, SPAG 1:12.5): 0%
inhibition at 10 µg/mL (TNF-α; Table 1, SPAG 1:12.5): 55%
inhibition at 20 µg/mL (TNF-α; Table 1, SPAG 1:12.5, preincubated 2 hrs): 100%
inhibition at 1.25 µg/mL (TNF-α; Table 2, LPS 1:1000): 2%
inhibition at 6.25 µg/mL (TNF-α; Table 2, LPS 1:1000): 23%
inhibition at 12.5 µg/mL (TNF-α; Table 2, LPS 1:1000): 28%
inhibition at 20 µg/mL (TNF-α; Table 2, LPS 1:1000, preincubated 2 hours): 33%
inhibition at 1.25 µg/mL (TNF-α; Table 2, SPAG 1:12.5): 87%
inhibition at 6.25 µg/mL (TNF-α; Table 2, SPAG 1:12.5): 99%
inhibition at 12.5 µg/mL (TNF-α; Table 2, SPAG 1:12.5): 100%
inhibition at 20 µg/mL (TNF-α; Table 2, SPAG 1:12.5, preincubated 2 hours): 100%
IC50 (Leishmania promastigotes): 27 ± 2 µM
IC50 (human lymphocytes): 25 ± 2 µM
